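Grown in 96-well plates, cells were treated for 48 hours with each compound at five concentrations. Insufficient inhibition: endpoint recorded as highest concentration tested. Here, GI50 denotes the concentration required for 50% inhibition of growth.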 Active and inactive are the calls of the source. No stated cut-off is given here; in the data, active = GI50 up to about 1.1 µM and inactive = higher.
Experiments:
Assay in all cases: growth of human tumour cells (NCI), 48 h
786-0 = tested on: 786-0
A498 = tested on: A498
A549 = tested on: A549
ACHN = tested on: ACHN
BT-549 = tested on: BT-549
CAKI-1 = tested on: CAKI-1
CCRF-CEM = tested on: CCRF-CEM
COLO 205 = tested on: COLO 205
DU-145 = tested on: DU-145
EKVX = tested on: EKVX
HCT-116 = tested on: HCT-116
HCT-15 = tested on: HCT-15
HL-60 = tested on: HL-60
HOP-92 = tested on: HOP-92
HT-29 = tested on: HT-29
Hs-578T = tested on: Hs-578T
IGROV-1 = tested on: IGROV-1
KM12 = tested on: KM12
LOX IMVI = tested on: LOX IMVI
M14 = tested on: M14
MCF7 = tested on: MCF7
MDA-MB-231 = tested on: MDA-MB-231
MDA-MB-435 = tested on: MDA-MB-435
MDA-N = tested on: MDA-N
MOLT-4 = tested on: MOLT-4
NCI-H226 = tested on: NCI-H226
NCI-H23 = tested on: NCI-H23
NCI-H460 = tested on: NCI-H460
NCI-H522 = tested on: NCI-H522
NCI/ADR-RES = tested on: NCI/ADR-RES
OVCAR-3 = tested on: OVCAR-3
OVCAR-4 = tested on: OVCAR-4
OVCAR-5 = tested on: OVCAR-5
OVCAR-8 = tested on: OVCAR-8
PC-3 = tested on: PC-3
RPMI-8226 = tested on: RPMI-8226
RXF 393 = tested on: RXF 393
SF-268 = tested on: SF-268
SF-295 = tested on: SF-295
SF-539 = tested on: SF-539
SK-MEL-2 = tested on: SK-MEL-2
SK-MEL-5 = tested on: SK-MEL-5
SK-OV-3 = tested on: SK-OV-3
SN12C = tested on: SN12C
SNB-19 = tested on: SNB-19
SNB-75 = tested on: SNB-75
SR = tested on: SR
SW-620 = tested on: SW-620
T47D = tested on: T47D
TK-10 = tested on: TK-10
U-251 = tested on: U-251
UACC-257 = tested on: UACC-257
UACC-62 = tested on: UACC-62
UO-31 = tested on: UO-31
HCC 2998 = tested on: HCC 2998
HOP-62 = tested on: HOP-62
K562 = tested on: K562
Malme-3M = tested on: Malme-3M
SK-MEL-28 = tested on: SK-MEL-28

Measured: GI50

CC(=O)Nc1ncc2c(n1)-c1ccccc1OC2c1ccccc1 (stereo not drawn)
> 100 µM: HCT-15
inactive: 786-0 12.4 µM | A498 20.7 µM | A549 > 100 µM | ACHN 11 µM | BT-549 27.7 µM | CAKI-1 26.1 µM | CCRF-CEM > 100 µM | COLO 205 > 100 µM | DU-145 > 100 µM | EKVX 61 µM | HCT-116 80.9 µM | HL-60 > 100 µM | HOP-92 14.8 µM | HT-29 > 100 µM | Hs-578T 6.89 µM | IGROV-1 46.5 µM | KM12 > 100 µM | LOX IMVI > 100 µM | M14 > 100 µM | MCF7 > 100 µM | MDA-MB-231 21.7 µM | MDA-MB-435 > 100 µM | MDA-N > 100 µM | MOLT-4 > 100 µM | NCI-H226 20.5 µM | NCI-H23 26.1 µM | NCI-H460 > 100 µM | NCI-H522 37.7 µM | NCI/ADR-RES 32.8 µM | OVCAR-3 > 100 µM | OVCAR-4 18.5 µM | OVCAR-5 > 100 µM | OVCAR-8 23.6 µM | PC-3 > 100 µM | RPMI-8226 > 100 µM | RXF 393 17.1 µM | SF-268 15.4 µM | SF-295 32.2 µM | SF-539 13.2 µM | SK-MEL-2 71.8 µM | SK-MEL-5 > 100 µM | SK-OV-3 42.8 µM | SN12C 87.9 µM | SNB-19 20.8 µM | SNB-75 14.1 µM | SR > 100 µM | SW-620 > 100 µM | T47D 24.7 µM | TK-10 28.7 µM | U-251 33.1 µM | UACC-257 > 100 µM | UACC-62 14.1 µM | UO-31 > 100 µM

Nc1cc(N)cc(Cc2ccccc2)c1
> 100 µM: HCT-15
inactive: 786-0 > 100 µM | A498 > 100 µM | A549 > 100 µM | ACHN > 100 µM | BT-549 > 100 µM | CAKI-1 > 100 µM | CCRF-CEM > 100 µM | COLO 205 > 100 µM | DU-145 > 100 µM | EKVX > 100 µM | HCC 2998 > 100 µM | HCT-116 > 100 µM | HL-60 > 100 µM | HOP-62 > 100 µM | HOP-92 > 100 µM | HT-29 > 100 µM | Hs-578T > 100 µM | IGROV-1 > 100 µM | K562 > 100 µM | KM12 > 100 µM | LOX IMVI > 100 µM | M14 > 100 µM | MCF7 > 100 µM | MDA-MB-231 > 100 µM | MDA-MB-435 > 100 µM | MDA-N > 100 µM | MOLT-4 > 100 µM | Malme-3M > 100 µM | NCI-H226 > 100 µM | NCI-H23 > 100 µM | NCI-H460 > 100 µM | NCI-H522 > 100 µM | NCI/ADR-RES > 100 µM | OVCAR-3 > 100 µM | OVCAR-4 > 100 µM | OVCAR-5 > 100 µM | OVCAR-8 > 100 µM | PC-3 > 100 µM | RXF 393 > 100 µM | SF-268 > 100 µM | SF-295 > 100 µM | SF-539 > 100 µM | SK-MEL-28 > 100 µM | SK-MEL-2 > 100 µM | SK-MEL-5 > 100 µM | SK-OV-3 > 100 µM | SN12C > 100 µM | SNB-19 > 100 µM | SR > 100 µM | SW-620 > 100 µM | T47D > 100 µM | TK-10 > 100 µM | U-251 > 100 µM | UACC-257 > 100 µM | UO-31 > 100 µM

c1ccc2c3c(c(N4CCNCC4)nc2c1)CCCC3
15.8 µM: HCT-15
inactive: 786-0 14.4 µM | A498 14.5 µM | A549 15.1 µM | ACHN 14.5 µM | BT-549 13.9 µM | CAKI-1 9.25 µM | CCRF-CEM 9.98 µM | COLO 205 5.75 µM | DU-145 15.3 µM | EKVX 7.53 µM | HCC 2998 1.95 µM | HCT-116 14.1 µM | HL-60 8.93 µM | HOP-62 17.7 µM | HOP-92 14.2 µM | HT-29 14.2 µM | Hs-578T 27.7 µM | IGROV-1 12.4 µM | K562 5.5 µM | KM12 17.2 µM | LOX IMVI 14.2 µM | M14 5.26 µM | MCF7 14.4 µM | MDA-MB-231 14.3 µM | MDA-MB-435 11.4 µM | MDA-N 13.9 µM | MOLT-4 16.1 µM | Malme-3M 19.9 µM | NCI-H226 14.8 µM | NCI-H23 14.6 µM | NCI-H460 15.1 µM | NCI-H522 15.3 µM | NCI/ADR-RES 14.1 µM | OVCAR-3 15.5 µM | OVCAR-4 16 µM | OVCAR-5 13.7 µM | OVCAR-8 15.5 µM | PC-3 13 µM | RXF 393 10.4 µM | SF-268 15.2 µM | SF-295 21.6 µM | SF-539 10.7 µM | SK-MEL-28 16.1 µM | SK-MEL-2 12.6 µM | SK-MEL-5 12 µM | SK-OV-3 18.8 µM | SN12C 16.3 µM | SNB-19 14.6 µM | SNB-75 13.9 µM | SR 13.2 µM | SW-620 17 µM | T47D 13.5 µM | TK-10 13.7 µM | U-251 13.4 µM | UACC-257 8.15 µM | UACC-62 16.7 µM | UO-31 2.9 µM

— ChEMBL document CHEMBL1201862, “PubChem BioAssay data set” (2004)
